Here are results for one compound from patent US20030040644A1, “Synthesis of nitroalcohol diastereomers” (Pharm-Eco Laboratories, Inc., priority 1999, published 2003).

Where “and” joins values, the source holds several entries; their conditions need not be identical. Equal entries are not always repeated.

The nature of the series: Solubility of the diastereomers in several solvent systems (mobile phases). It is filed as physicochemical. As to the method: In order to have a concentrated sample for loading on the simulated moving bed separation system, a high degree of solubility in the mobile phase to be used for the separation is desirable. Therefore, the solubility of the 1-nitro-3-benzyl-3-(N-ethoxycarbonyl)amino-2-propanol diastereomers in several solvent systems was determined.

In the case of `CCOC(=O)NC(Cc1ccccc1)C(O)C[N+](=O)[O-]` (single isomer, unassigned) [1-nitro-3-benzyl-3-benzyl-3-(N-ethoxycarbonyl)amino-2-propanol diastereomers, 1-nitro-3-benzyl-3-(N-ethoxycarbonyl)amino-2-propanol], the “% Solubility” value by setting is: (mobile phase 10% ethyl acetate/90% methylene chloride) 3.8%; (mobile phase 40% water/60% methanol) 1.7%; (mobile phase 50% heptane/50% THF) 20%; (mobile phase 50% heptane/50% ethyl acetate) 3.81%; (mobile phase 50% methanol/50% THF) 78%; (mobile phase 60% water/40% acetonitrile) 3.29%. The “% Solubility” value is, setting by setting: (mobile phase 70% heptane/30% THF) 4%; (mobile phase 70% heptane/30% ethanol) 20%; (mobile phase 70% heptane/30% ethyl acetate) 1.11% and 1.09% and 1.31%; (mobile phase 70% heptane/30% isopropanol) 0.36%; (mobile phase 80% heptane/20% ethanol) 0.31% and 1.86%; (mobile phase 80% toluene/20% THF) 6%. Moreover, the “% Solubility” value (mobile phase 100% methanol) came to 40%.
